Key:
Dirofilaria immitis [1] = test: Efficacy of monepantel administered per os to dogs for treatment and control of Dirofilaria immitis; type: in vivo; details: all 12 dogs; daily oral 0.083 mg/kg and 0.83 mg/kg up to Day 179; inoculated with 50 L3 D. immitis on Day -28 or Day 0; counted on or after Day 180; expected result
[2] = in vivo; cited from earlier work
Dirofilaria immitis [3] = test: Efficacy of moxidectin administered per os to dogs for treatment and control of Dirofilaria immitis; type: in vivo; details: all 12 dogs; daily oral 0.8 μg/kg and 1.6 μg/kg up to Day 179; inoculated with 50 L3 D. immitis on Day -28 or Day 0; counted on or after Day 180; expected result

Compound	heartworms recovered (Dirofilaria immitis [1])	terminal half-life [2]	heartworms recovered (Dirofilaria immitis [3])
C[C@](C#N)(COc1cc(C#N)ccc1C(F)(F)F)NC(=O)c1ccc(SC(F)(F)F)cc1 [monepantel, N-[(2S)-2-cyano-1-[5-cyano-2-(trifluoromethyl)phenoxy]propan-2-yl]-4-(trifluoromethylsulfanyl)benzamide]	0	–	–
CO/N=C1\C[C@]2(C[C@@H]3C[C@@H](C/C=C(\C)C[C@@H](C)/C=C/C=C4\CO[C@@H]5[C@H](O)C(C)=C[C@@H](C(=O)O3)[C@]45O)O2)O[C@H](/C(C)=C/C(C)C)[C@H]1C [moxidectin]	–	approximately 13.9 days	0
ivermectin	–	43.2 h	–

— patent US20250204553A1, “FEED AND METHODS FOR CONTROLLING HEARTWORM INFECTIONS IN A MAMMAL” (In the Bowl Animal Health, Inc., priority 2022, published 2025)
